We go through two compounds from patent US7345079B2, “Treatment of disorder related to low cyclic GMP levels” (Yung Shin Pharmaceuticals Industrial Co., Ltd, priority 2001, dated 2008).

One data set addresses T1, PDE 5 (Homo sapiens, UniProt O76074).
T1 construct: Washed human platelets were prepared by the method described in Teng et al; from tissue; host or cells: human platelets (sonicated lysate, 39,000×g supernatant)
In words: Inhibition of PDE 5 (human platelet lysate, cGMP hydrolysis). To be noted: PDE 5 from washed human platelet supernatant; 10 μM cGMP; 37° C. 30 minutes; read-out: IC50 in inhibiting PDE 5. The format is biochemical. The procedure: A suitable in vitro assay can be used to preliminarily evaluate the effect of a fused pyrazolyl compound on inhibiting a PDE, which hydrolyzes cGMP. For example, platelets are washed, suspended in a buffer, and disrupted by sonication to obtain a solution containing a PDE. A compound to be tested and cGMP (a substrate for the PDE) are added to the solution. Ophiophagus hannah snake venom is subsequently added to remove the phosphate in 5′-GMP (converted from cGMP by the PDE) to form uncharged guanosine. An ion-exchange resin is used to remove the remaining cGMP. The cGMP-free solution is then centrifuged, and an aliquot of the supernatant is taken for quantification of the uncharged guanosine in a liquid scintillation counter. Activity of the PDE is evaluated based on the amount of the uncharged guanosine. In vivo screening can be performed by following procedures well known in the art.
Washed human platelets were prepared by the method described in Teng et al. Biochem. Biophys. Acta. 1989, 990, 315-320, suspended in 50 mM pH 7.4 Tris-HCl buffer (containing 5 mM MgCl2), and then disrupted by sonication at 4° C. […] The cGMP-free solution thus obtained was then centrifuged, and 0.5 mL of the supernatant was taken for quantification of uncharged guanosine in a liquid scintillation counter.

As usually defined, the melting point is the temperature, or range, at which the solid turns liquid. In the case of `OCc1ccc(-c2nn(Cc3ccccc3)c3cc4c(cc23)OCO4)o1` [Compound 4, 1-benzyl-3-(5′-hydroxymethyl-2′-furyl)-5,6-methylenedioxoindazole], the melting point lay within 122 to 123 °C.

The term IC50 denotes the concentration that inhibits the measured activity by half. For `COc1ccc2c(-c3ccc(CO)o3)nn(Cc3ccccc3)c2c1` [Compound 1, 1-benzyl-3-(5′-hydroxymethyl-2′-furyl)-6-methoxyindazole], the melting point was in the range of 109 to 110 °C. In addition, the IC50 at PDE 5 was 3.5 µM.
